This assay deals with hGYS1 enzyme (recombinant hGYS1/GN1 protein) (Homo sapiens (Human), UniProt P13807). Put plainly: GYS1 coupled enzyme assay (PK/LDH). The assay is classed as biochemical. As to conditions: hGYS1/GN1 50 nM, UDP-Glucose 0.8 mM, G6P 1 mM; geometric mean of at least 2 runs.
Chain of hGYS1 enzyme (recombinant hGYS1/GN1 protein) (P13807 whole entry): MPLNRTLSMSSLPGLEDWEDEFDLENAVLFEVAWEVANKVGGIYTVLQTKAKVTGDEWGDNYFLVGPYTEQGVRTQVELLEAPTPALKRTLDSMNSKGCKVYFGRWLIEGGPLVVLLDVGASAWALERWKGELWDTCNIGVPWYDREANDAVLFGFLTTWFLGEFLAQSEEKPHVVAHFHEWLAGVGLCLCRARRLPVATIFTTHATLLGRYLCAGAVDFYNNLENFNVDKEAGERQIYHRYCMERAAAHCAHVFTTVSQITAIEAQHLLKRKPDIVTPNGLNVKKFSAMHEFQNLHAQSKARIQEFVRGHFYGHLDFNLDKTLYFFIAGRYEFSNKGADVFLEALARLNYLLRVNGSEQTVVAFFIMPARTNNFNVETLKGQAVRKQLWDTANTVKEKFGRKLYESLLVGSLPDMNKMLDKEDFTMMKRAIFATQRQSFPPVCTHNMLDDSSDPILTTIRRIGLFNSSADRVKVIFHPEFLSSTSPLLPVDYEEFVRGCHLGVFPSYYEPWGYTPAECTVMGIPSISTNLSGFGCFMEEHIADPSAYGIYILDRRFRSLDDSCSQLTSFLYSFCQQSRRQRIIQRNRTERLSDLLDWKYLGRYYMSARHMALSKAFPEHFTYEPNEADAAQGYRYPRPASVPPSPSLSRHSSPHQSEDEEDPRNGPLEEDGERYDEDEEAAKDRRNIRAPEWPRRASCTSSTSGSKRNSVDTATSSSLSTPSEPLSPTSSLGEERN
Chain of hGYS1 enzyme (recombinant hGYS1/GN1 protein) (P46976 whole entry partner): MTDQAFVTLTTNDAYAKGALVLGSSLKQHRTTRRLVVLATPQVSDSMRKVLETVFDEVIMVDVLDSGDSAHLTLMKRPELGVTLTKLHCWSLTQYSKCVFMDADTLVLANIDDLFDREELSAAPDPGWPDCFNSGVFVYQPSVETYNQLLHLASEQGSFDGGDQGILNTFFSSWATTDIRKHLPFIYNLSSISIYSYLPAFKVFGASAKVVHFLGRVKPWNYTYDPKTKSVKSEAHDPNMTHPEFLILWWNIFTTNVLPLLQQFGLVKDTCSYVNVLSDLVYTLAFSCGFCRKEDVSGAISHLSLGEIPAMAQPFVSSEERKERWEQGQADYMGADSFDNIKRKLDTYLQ
The IC50 is the point on the concentration scale where inhibition reaches its midpoint. In the case of `COC1(CC(=O)N2C[C@H](F)C[C@H]2C(=O)N[C@@H](c2ccccc2)c2ccc(C(C)C)cc2)CN(C(C)=O)C1` [Compound 161, (2S,4R)-1-[2-(1-acetyl-3-methoxyazetidin-3-yl)acetyl]-4-fluoro-N-[(S)-phenyl[4-(propan-2-yl)phenyl]methyl]pyrrolidine-2-carboxamide], the 50% inhibitory concentration (IC50) is 374 nM.

For `CC(=O)N1C[C@H](F)C[C@H]1C(=O)NC(c1cccc(-c2nnco2)c1)c1ccc(C(C)C)c(F)n1` (single isomer, unassigned) [Compound 700, (2S,4R)-1-acetyl-4-fluoro-N-[(S) or (R)-[6-fluoro-5-(propan-2-yl)pyridin-2-yl][3-(1,3,4-oxadiazol-2-yl)phenyl]methyl] pyrrolidine-2-carboxamide], the IC50 came to 321 nM.

On to `CC(C)c1ccc([C@@H](NC(=O)[C@@H]2C[C@@H](F)CN2C(=O)c2ccc3c(n2)NC(=O)CC3)c2ccccc2)cc1` [Compound 704, (2S,4R)-4-fluoro-1-(7-oxo-5,6,7,8-tetrahydro-1,8-naphthyridine-2-carbonyl)-N-[(S)-phenyl[4-(propan-2-yl)phenyl]methyl]pyrrol-idine-2-carboxamide], for which the IC50 is 2220 nM.

On to `COc1cc(C(=O)N2C[C@H](F)C[C@H]2C(=O)N[C@@H](c2ccccc2)c2ccc(C(C)C)cc2)nn1C` [Compound 709, (2S,4R)-4-fluoro-1-(5-methoxy-1-methyl-1H-pyrazole-3-carbonyl)-N-[(S)-phenyl[4-(propan-2-yl)phenyl]methyl]pyrrol-idine-2-carboxamide], for which the IC50 came to 1140 nM.

In the case of `CC(=O)N1CC(F)(C(=O)N2C[C@H](F)C[C@H]2C(=O)N[C@@H](c2ccccc2)c2ccc(C(C)C)cc2)C1` [Compound 143, (2S,4R)-1-(1-acetyl-3-fluoroazetidine-3-carbonyl)-4-fluoro-N-[(S)-phenyl[4-(propan-2-yl)phenyl]methyl]pyrrolidine-2-carboxamide], the IC50 was 323 nM.

Take `CC(=O)N1C2CCC1[C@@H](C(=O)N1C[C@H](F)C[C@H]1C(=O)N[C@@H](c1ccccc1)c1ccc(C(C)C)cc1)C2` (stereo partly drawn) [Compound 157, (2S,4R)-1-[(2S)-7-acetyl-7-azabicyclo[2.2.1]heptane-2-carbonyl]-4-fluoro-N-[(S)-phenyl[4-(propan-2-yl)phenyl]methyl]pyrrolidine-2-carboxamide]: the IC50 turned out to be 392 nM.

On to `CC(C)c1ccc([C@@H](NC(=O)[C@@H]2C[C@@H](F)CN2C(=O)C(=O)C2CC2)c2ccccc2)cc1` [Compound 113, (2S,4R)-1-(2-cyclopropyl-2-oxoacetyl)-4-fluoro-N-[(S)-phenyl[4-(propan-2-yl)phenyl]methyl]pyrrolidine-2-carboxamide], for which the IC50 amounted to 1040 nM.

Regarding `CC(=O)N1CC(CC(=O)N2C[C@H](F)C[C@H]2C(=O)N[C@@H](c2ccccc2)c2ccc(C(C)C)cc2)Oc2ccccc21` (stereo partly drawn) [Compound 116, (2S,4R)-1-[2-(4-acetyl-3,5-dihydro-2H-1,4-benzoxazin-2-yl)acetyl]-4-fluoro-N-[(S)-phenyl[4-(propan-2-yl)phenyl]methyl]pyrrolidine-2-carboxamide], the IC50 is 121 nM.

On to `CC(=O)N1C[C@]2(C(=O)N3C[C@H](F)C[C@H]3C(=O)N[C@@H](c3ccccc3)c3ccc(C(C)C)cc3)CC1CO2` [Compound 150, (2S,4R)-1-[(1S)-5-acetyl-2-oxa-5-azabicyclo[2.2.1]heptane-1-carbonyl]-4-fluoro-N-[(S)-phenyl[4-(propan-2-yl)phenyl]methyl]pyrrolidine-2-carboxamide], for which the IC50 amounted to 554 nM.

As for `CC(C)c1ccc([C@@H](NC(=O)[C@@H]2C[C@@H](F)CN2C(=O)C(C)n2cccn2)c2ccccc2)cc1` (stereo partly drawn) [Compound 43, (2S,4R)-4-fluoro-N-[(S)-phenyl[4-(propan-2-yl)phenyl]methyl]-1-[2-(1H-pyrazol-1-yl)propanoyl]pyrrolidine-2-carboxamide], the IC50 amounted to 91 nM.

Regarding `COc1ccc(C2CC2C(=O)N2C[C@H](F)C[C@H]2C(=O)N[C@@H](c2ccccc2)c2ccc(C(C)C)cc2)cc1` (stereo partly drawn) [Compound 703, (2S,4R)-4-fluoro-1-[2-(4-methoxyphenyl)cyclopro-panecarbonyl]-N-[(S)-phenyl[4-(propan-2-yl)phenyl]methyl]pyrrol-idine-2-carboxamide], the IC50 was 2160 nM.

`CC(=O)NCC(=O)N1CCC[C@H]1C(=O)NC(c1ccc(C2CC2)c(F)c1)c1ccn[nH]1` (single isomer, unassigned) [Compound 615, (2S)-N-[(R) or (S)-(4-cyclopropyl-3-fluorophenyl)(1H-pyrazol-5-yl)methyl]-1-(2-acetamidoacetyl) pyrrolidine-2-carboxamide]: the IC50 was determined as 1580 nM.

As for `CC(C)c1ccc([C@@H](NC(=O)[C@@H]2C[C@@H](F)CN2C(=O)Cc2cc[nH]n2)c2ccccc2)cc1` [Compound 19, (2S,4R)-4-fluoro-N-[(S)-phenyl[4-(propan-2-yl)phenyl]methyl]-1-[2-(1H-pyrazol-5-yl)acetyl]pyrrolidine-2-carboxamide], the IC50 stood at 47 nM.

Turning to `O=C(N[C@@H](c1ccccc1)c1ccc(C2CC2)c(F)c1)[C@@H]1C[C@@H](F)CN1C(=O)Cc1nnc(C2CC2)o1` [Compound 429, (2S,4R)-1-[2-(5-cyclopropyl-1,3,4-oxadiazol-2-yl)acetyl]-N-[(S)-(4-cyclopropyl-3-fluorophenyl)(phenyl)methyl]-4-fluoropyrrolidine-2-carboxamide], the IC50 is 114 nM.

As to `CC(=O)N1[C@@H](C)CC[C@H]1C(=O)N[C@@H](c1ccccc1)c1ccc(C2CC2)c(F)c1` [Compound 419, (2S,5S)-1-acetyl-N-[(S)-(4-cyclopropyl-3-fluorophenyl)(phenyl)methyl]-5-methylpyrrolidine-2-carboxamide], the IC50 was 2190 nM.

As to `COCc1oncc1C(=O)N1C[C@H](F)C[C@H]1C(=O)N[C@@H](c1ccccc1)c1ccc(C(C)C)cc1` [Compound 82, (2S,4R)-4-fluoro-1-[5-(methoxymethyl)-1,2-oxazole-4-carbonyl]-N-[(S)-phenyl[4-(propan-2-yl)phenyl]methyl]pyrrolidine-2-carboxamide], the half-inhibitory concentration (IC50) stood at 504 nM.

Consider `CC(C)c1ccc([C@@H](NC(=O)[C@@H]2C[C@@H](F)CN2C(=O)CCc2cnc[nH]2)c2ccccc2)cc1` [Compound 45, (2S,4R)-4-fluoro-1-[3-(1H-imidazol-5-yl)propanoyl]-N-[(S)-phenyl[4-(propan-2-yl)phenyl]methyl]pyrrolidine-2-carboxamide], for which the IC50 was 58 nM.

For the compound `CC(=O)N1CCC(C)(C(=O)N2C[C@H](F)C[C@H]2C(=O)N[C@@H](c2ccccc2)c2ccc(C(C)C)cc2)C1` (stereo partly drawn) [Compound 152, (2S,4R)-1-(1-acetyl-3-methylpyrrolidine-3-carbonyl)-4-fluoro-N-[(S)-phenyl[4-(propan-2-yl)phenyl]methyl]pyrrolidine-2-carboxamide], the IC50 amounted to 132 nM.

As for `CC(=O)N1CC[C@@H](C)[C@H](C(=O)N2C[C@H](F)C[C@H]2C(=O)N[C@@H](c2ccccc2)c2ccc(C(C)C)cc2)C1` [Compound 170, (2S,4R)-1-[(3S,4R)-1-acetyl-4-methylpiperidine-3-carbonyl]-4-fluoro-N-[(S)-phenyl[4-(propan-2-yl)phenyl]methyl]pyrrolidine-2-carboxamide], the IC50 stood at 306 nM.
